Laboratory results as given in patent US7585976B2, “Hemiasterlin derivatives and uses thereof” (priority 2002, dated 2009).

Assay: Screening profile of desired properties (growth inhibition, MDR, cytotoxicity, mouse serum stability, mitotic block reversibility, xenografts)
Settings: properties (i)-(vii)
Experimental: In certain embodiments, compounds of the invention were tested for in vitro and in vivo activity. Screening methods included standard in vitro cell growth inhibition assays using a panel of human cancer cell lines, a U937 (ATCC accession number CRL 1593) mitotic block reversibility assay, mouse serum stability assay, MDR assay, and cytotoxicity assay. In certain other emdodiments, compounds of the invention were evaluated in tumor xenograft in vivo growth inhibition assays.

Row | SMILES | desired properties (growth inhibition IC50, resistance ratio, cytotoxicity in non-dividing cells, mouse serum stability, reversibility ratio, tumor regression, T/C)
1 | CN[C@H](C(=O)N[C@H](C(=O)N(C)[C@H](CN(C)CC(=O)N1CCC[C@H]1C(=O)OC)C(C)C)C(C)(C)C)C(C)(C)c1ccccc1 [ER-806925] | exhibiting desired properties
2 | CN[C@H](C(=O)N[C@H](C(=O)N(C)[C@H](/C=C(\C)C(=O)N1CCC[C@H]1C(=O)OC)C(C)C)C(C)(C)C)C(C)(C)c1ccccc1 [ER-805736] | exhibiting desired properties
3 | C/C(=C\[C@H](C(C)C)N(C)C(=O)[C@@H](NC(=O)[C@H]1CCCCN1C)C(C)(C)C)C(=O)O [ER-807102] | exhibiting desired properties
4 | CCC(CC)(NC)C(=O)N[C@H](C(=O)N(C)[C@H](/C=C(\C)C(=O)O)C(C)C)C(C)(C)C [ER-807850] | exhibiting desired properties
5 | CN[C@H](C(=O)N[C@H](C(=O)N(C)[C@H](CN1CCC[C@H]1C(=O)N1CCC[C@H]1C(N)=O)C(C)C)C(C)(C)C)C(C)(C)c1ccccc1 [ER-807328] | exhibiting desired properties
6 | CC(C)OC(=O)[C@@H]1CCCN1C(=O)[C@@H]1CCCN1C[C@H](C(C)C)N(C)C(=O)[C@@H](NC(=O)C1CCCCN1C)C(C)(C)C (some centres unmarked) [ER-807904] | exhibiting desired properties
7 | CN[C@H](C(=O)N[C@H](C(=O)N(C)[C@H](/C=C(\C)C(=O)O)C(C)C)C(C)(C)C)C(C)(C)c1ccc(OCc2ccccc2)cc1 [ER-805913] | exhibiting desired properties
8 | CCC(C)N1CCCC[C@@H]1C(=O)N[C@H](C(=O)N(C)[C@H](/C=C(\C)C(=O)O)C(C)C)C(C)(C)C (some centres unmarked) [ER-808368] | exhibiting desired properties
9 | CCC(C)N1CCCC[C@@H]1C(=O)N[C@H](C(=O)N(C)[C@H](/C=C(\C)C(=O)O)C(C)C)C(C)C (some centres unmarked) [ER-808824] | exhibiting desired properties
10 | C/C(=C\[C@H](C(C)C)N(C)C(=O)[C@@H](NC(=O)[C@H]1CCCCN1C(C)C)C(C)(C)C)C(=O)O [ER-807974] | exhibiting desired properties
11 | C/C(=C\[C@H](C(C)C)N(C)C(=O)[C@@H](NC(=O)[C@H]1CCCCN1C(C)C(C)C)C(C)(C)C)C(=O)O (single isomer, unassigned) [ER-808662] | exhibiting desired properties
